# Source: patent US20110142866A1, “PEPTIDE ANALOGUES AND CONJUGATES THEREOF” (Eldrug S.A., priority 2007, published 2011)
# Tests used:
# MOG35-55 induced EAE [1] = test: MOG35-55 EAE, spinal cord histopathology; format: in vivo, C57BL/6 mice
# Procedure: On day 17 (acute phase of EAE) and day 46 post-EAE-induction (chronic phase of EAE) animals were subjected to transcardial perfusion with 4% paraformaldehyde in PBS. Brains and spinal cords were removed, post-fixed in the same fixative for approximately 20 hours, routinely processed for paraffin embedding and sectioned at […]. Sections from animals of acute and chronic phases of the disease, were then stained using the following methods: a) a modified Bielschowsky silver impregnation staining method combined with haematoxylin, for the simultaneous evaluation of axonal injury, axonal loss and inflammatory processes in EAE as previously described in detail [Lourbopoulos et, al., 2007]; b) Luxol fast blue staining counterstained with Nuclear fast Red for the detection of demyelinating areas within the CNS of animals, using routine histopathological protocols. Pathological evaluation was performed under a light microscope (Olympus Axioplan-2) by two blinded investigators and photos were taken using a CCD camera (Nikon). Five randomly selected longitudinal sections per tissue (brains and spinal cords) were evaluated as follows: for each animal, each section was evaluated under 20× or 40× optical fields (depending on the object of study) so as to cover the entire area of the section. […] Depending on the object of interest the following scales were used to perform the evaluation: (a) For axonal injury (AI), the following scale was used: 0=no AI, 1+=scattered dystrophic injured axons without any spheroid or ovoid, 2+=mild AI with the presence of at least one spheroid or ovoid, 3+=moderate AI, 4+=severe AI; generally injured axons were defined and identified as spheroids and ovoids (which represent axonotmesis), and dilated (dystrophic) axons which represent injured axons not yet being cut. (b) For axonal loss (AL): 0=normal axonal density, 1+=<25% AL, 2+=mild AL (26-50%), 3+=moderate to severe (51-75%) AL, 4+=severe AL (>75%); various degrees of decreased density of axons was attributed to axonal loss and evaluated accordingly. (c) For infiltrations: number of infiltrating cells per optical field and number of infiltrating cells per infiltration. (d) Demyelination was evaluated under 40× optical fields; using a prefrontal grid, we measured the area of demyelination and the total area of white matter in each optical field and then subtracted the % of demyelination present in each optical field.
# Stability to proteolysis = format: in vitro ADME; settings: compared to linear counterparts
# MOG35-55 induced EAE [2] = test: Chronic MOG35-55 EAE, clinical evaluation; format: in vivo, C57BL/6 mice; settings: for overall clinical effect on MOG35-55 EAE: co-injection at disease induction at 1:1 ratio
structure (smiles),measurement,setting,value
"CC[C@H](C)[C@@H]1NC(=O)[C@H](CC(N)=O)NC(=O)[C@H](CCCCN)NC(=O)[C@H](Cc2ccccc2)NC(=O)[C@H](Cc2ccccc2)NC(=O)[C@H](Cc2c[nH]cn2)NC(=O)[C@H](C(C)C)NC(=O)[C@H](C(C)C)NC(=O)[C@@H]2CCCN2C(=O)[C@H](CC(N)=O)NC(=O)[C@H](CCC(=O)O)NC(=O)[C@@H]2CCCN2C(=O)[C@H]([C@@H](C)O)NC(=O)[C@H](CCCNC(=N)N)NC(=O)[C@@H]2CCCN2C(=O)[C@H]([C@@H](C)O)NC(=O)[C@H](C(C)C)NC1=O [cyclo(83-99)MBP83-99, cyclo(83-99)E N P V V H F F K N I V T P R T P]",demyelination of the white matter of spinal cords,MOG35-55 induced EAE [1]; acute phase,9.58±10.5%
same,effect on axonal injury vs control,MOG35-55 induced EAE [1]; acute phase,mild but statistical significant beneficial effect
same,effect on axonal loss vs control,MOG35-55 induced EAE [1]; acute phase,mild effect
same,infiltrating cells per optical field,MOG35-55 induced EAE [1]; acute phase,290.8±277.7
same,inflammatory cells per infiltration,MOG35-55 induced EAE [1]; acute phase,53.72±62.0
same,"axonal injury per 20x field, % within GROUP","MOG35-55 induced EAE [1]; acute phase, score 0",14.3%
same,"axonal loss per 20x field, % within GROUP","MOG35-55 induced EAE [1]; acute phase, score 0",16.5%
same,"axonal injury per 20x field, % within GROUP","MOG35-55 induced EAE [1]; acute phase, score 1+",45.1%
same,"axonal loss per 20x field, % within GROUP","MOG35-55 induced EAE [1]; acute phase, score 1+",36.1%
same,"axonal injury per 20x field, % within GROUP","MOG35-55 induced EAE [1]; acute phase, score 2+",22.3%
same,"axonal loss per 20x field, % within GROUP","MOG35-55 induced EAE [1]; acute phase, score 2+",31.6%
same,"axonal injury per 20x field, % within GROUP","MOG35-55 induced EAE [1]; acute phase, score 3+",11.3%
same,"axonal loss per 20x field, % within GROUP","MOG35-55 induced EAE [1]; acute phase, score 3+",12.0%
same,"axonal injury per 20x field, % within GROUP","MOG35-55 induced EAE [1]; acute phase, score 4+",6.0%
same,"axonal loss per 20x field, % within GROUP","MOG35-55 induced EAE [1]; acute phase, score 4+",3.8%
same,axonal injury vs control,MOG35-55 induced EAE [1]; chronic phase,not different
same,axonal loss vs control,MOG35-55 induced EAE [1]; chronic phase,less
same,demyelination of the white matter of spinal cords,MOG35-55 induced EAE [1]; chronic phase,7.65±11.4%
same,infiltrating cells per optical field,MOG35-55 induced EAE [1]; chronic phase,10.71±39.0
same,inflammatory cells per infiltration,MOG35-55 induced EAE [1]; chronic phase,6.0±15.8
same,"axonal injury per 20x field, % within GROUP","MOG35-55 induced EAE [1]; chronic phase, score 0",49.3%
same,"axonal loss per 20x field, % within GROUP","MOG35-55 induced EAE [1]; chronic phase, score 0",51.4%
same,"axonal injury per 20x field, % within GROUP","MOG35-55 induced EAE [1]; chronic phase, score 1+",29.0%
same,"axonal loss per 20x field, % within GROUP","MOG35-55 induced EAE [1]; chronic phase, score 1+",26.8%
same,"axonal injury per 20x field, % within GROUP","MOG35-55 induced EAE [1]; chronic phase, score 2+",13.0%
same,"axonal loss per 20x field, % within GROUP","MOG35-55 induced EAE [1]; chronic phase, score 2+",10.9%
same,"axonal injury per 20x field, % within GROUP","MOG35-55 induced EAE [1]; chronic phase, score 3+",8.0%
same,"axonal loss per 20x field, % within GROUP","MOG35-55 induced EAE [1]; chronic phase, score 3+",10.1%
same,"axonal injury per 20x field, % within GROUP","MOG35-55 induced EAE [1]; chronic phase, score 4+",0.7%
same,"axonal loss per 20x field, % within GROUP","MOG35-55 induced EAE [1]; chronic phase, score 4+",0.7%
same,stability to the proteolysis,Stability to proteolysis,increases stability to the proteolysis
same,mean day of disease onset,MOG35-55 induced EAE [2]; acute phase experiment,12.00±0.81
same,mean clinical score vs control,"MOG35-55 induced EAE [2]; acute phase, days 15, 16 and 17",statistical significant different
same,mean Areas Under the Curve (mAUC),"MOG35-55 induced EAE [2]; acute phase, sacrifice day 17, 300 μg co-injected 1:1 with MOG35-55",13.32±2.55
same,mean day of disease onset,MOG35-55 induced EAE [2]; chronic phase experiment,17.00±11.74
same,Mean Maximal Clinical Scores (MMS),"MOG35-55 induced EAE [2]; chronic phase, day 46",2.375±1.45
same,mean Areas Under the Curve (mAUC),"MOG35-55 induced EAE [2]; chronic phase, day 46",51.08±36.58
same,mean clinical score vs control,"MOG35-55 induced EAE [2]; chronic phase, entire observation period",lower mean clinical score
same,overall clinical effect on MOG35-55 EAE,MOG35-55 induced EAE [2],mild beneficial effect
same,overall clinical effect on MOG35-55 EAE,MOG35-55 induced EAE [2]; listed as cyclic MBP83-99,mild preventive benefit
